Assay results taken from article PMC5218480 (PLoS ONE, 2017).

System: MV-4-11 cells
Assay: Gene expression microarray analysis (Affymetrix PrimeView) and GSEA
Type: cell-based, human
Parameters: RFU PODN (11730768_x_at) / Fold change /veh PODN (11730768_x_at) / RFU LINC00158 (11744669_a_at) / Fold change /veh LINC00158 (11744669_a_at) / RFU DUSP10 (11751237_a_at) / Fold change /veh DUSP10 (11751237_a_at) / RFU ID3 (11757404_x_at) / Fold change /veh ID3 (11757404_x_at) / RFU PLEKHG5 (11737974_s_at) / Fold change /veh PLEKHG5 (11737974_s_at) / RFU LRRC4B (11730491_at) / Fold change /veh LRRC4B (11730491_at) / RFU GIMAP4 (11747438_a_at) / Fold change /veh GIMAP4 (11747438_a_at) / RFU KRT8 (11758183_x_at) / Fold change /veh KRT8 (11758183_x_at) / RFU CNN1 (11734310_a_at) / Fold change /veh CNN1 (11734310_a_at) / RFU VPS37D (11726825_at) / Fold change /veh VPS37D (11726825_at) / RFU C10orf10 (11716522_x_at) / Fold change /veh C10orf10 (11716522_x_at) / RFU KIR2DL2 /// KIR2DL4 /// KIR2DL5A /// KIR2DL5B /// KIR2DS1 /// KIR2DS2 /// KIR2DS3 /// KIR2DS4 /// KIR3DL3 /// KIR3DL3 /// KIR3DS1 (11738374_at) / Fold change /veh KIR2DL2 /// KIR2DL4 /// KIR2DL5A /// KIR2DL5B /// KIR2DS1 /// KIR2DS2 /// KIR2DS3 /// KIR2DS4 /// KIR3DL3 /// KIR3DL3 /// KIR3DS1 (11738374_at) / RFU C1QL1 (11718748_at) / Fold change /veh C1QL1 (11718748_at) / RFU TMPRSS4 (11747572_a_at) / Fold change /veh TMPRSS4 (11747572_a_at) / RFU HAMP (11756126_x_at) / Fold change /veh HAMP (11756126_x_at) / RFU RNFT2 (11725882_a_at) / Fold change /veh RNFT2 (11725882_a_at) / RFU NR4A2 (11747474_a_at) / Fold change /veh NR4A2 (11747474_a_at) / RFU ABCC12 (11746883_a_at) / Fold change /veh ABCC12 (11746883_a_at) / RFU TMEM136 (11760407_x_at) / Fold change /veh TMEM136 (11760407_x_at) / RFU CLDN22 /// WWC2 (11732394_at) / Fold change /veh CLDN22 /// WWC2 (11732394_at) / RFU HLA-DPB1 (11760878_x_at) / Fold change /veh HLA-DPB1 (11760878_x_at) / RFU SPINT1 (11716480_a_at) / Fold change /veh SPINT1 (11716480_a_at) / RFU GAP43 (11754022_s_at) / Fold change /veh GAP43 (11754022_s_at) / RFU A4GNT (11735810_at) / Fold change /veh A4GNT (11735810_at) / RFU PRB3 (11715151_x_at) / Fold change /veh PRB3 (11715151_x_at) / RFU TUBB4B (11761932_at) / Fold change /veh TUBB4B (11761932_at) / RFU CAPN14 (11732068_a_at) / Fold change /veh CAPN14 (11732068_a_at) / RFU TMCC2 (11721928_a_at) / Fold change /veh TMCC2 (11721928_a_at) / RFU IRGQ (11745062_a_at) / Fold change /veh IRGQ (11745062_a_at) / RFU FAM174B (11720279_a_at) / Fold change /veh FAM174B (11720279_a_at) / RFU TMPRSS4 (11748680_a_at) / Fold change /veh TMPRSS4 (11748680_a_at) / RFU FAM212B (11763350_a_at) / Fold change /veh FAM212B (11763350_a_at) / RFU PLEKHG5 (11743358_a_at) / Fold change /veh PLEKHG5 (11743358_a_at) / RFU ZSCAN30 (11745921_a_at) / Fold change /veh ZSCAN30 (11745921_a_at) / RFU CMKLR1 (11741424_a_at) / Fold change /veh CMKLR1 (11741424_a_at) / RFU LOC101060620 /// MAPK8IP1 (11723275_at) / Fold change /veh LOC101060620 /// MAPK8IP1 (11723275_at) / RFU SPTSSB (11747773_x_at) / Fold change /veh SPTSSB (11747773_x_at) / RFU PRSS12 (11739890_at) / Fold change /veh PRSS12 (11739890_at) / RFU BIN1 (11741810_x_at) / Fold change /veh BIN1 (11741810_x_at) / RFU WNT11 (11732464_a_at) / Fold change /veh WNT11 (11732464_a_at) / RFU C10orf10 (11716521_a_at) / Fold change /veh C10orf10 (11716521_a_at) / RFU C5orf56 (11738089_at) / Fold change /veh C5orf56 (11738089_at) / RFU CYB561 (11721691_x_at) / Fold change /veh CYB561 (11721691_x_at) / RFU ANKRD19P (11752326_a_at) / Fold change /veh ANKRD19P (11752326_a_at) / RFU OR2T12 /// OR2T33 /// OR2T8 (11738714_s_at) / Fold change /veh OR2T12 /// OR2T33 /// OR2T8 (11738714_s_at) / RFU VCAN (11748164_a_at) / Fold change /veh VCAN (11748164_a_at) / RFU JSRP1 (11732532_at) / Fold change /veh JSRP1 (11732532_at) / RFU KRTAP10-11 (11738290_x_at) / Fold change /veh KRTAP10-11 (11738290_x_at) / RFU MYO3A (11730013_a_at) / Fold change /veh MYO3A (11730013_a_at) / RFU EBF3 (11725865_a_at) / Fold change /veh EBF3 (11725865_a_at) / RFU CAMK2N1 (11719241_x_at) / Fold change /veh CAMK2N1 (11719241_x_at) / RFU C5orf56 (11738088_a_at) / Fold change /veh C5orf56 (11738088_a_at) / RFU OLFML3 (11715873_a_at) / Fold change /veh OLFML3 (11715873_a_at) / RFU LOC100653217 /// NTM (11731650_a_at) / Fold change /veh LOC100653217 /// NTM (11731650_a_at) / RFU MAPK11 (11762145_a_at) / Fold change /veh MAPK11 (11762145_a_at) / RFU FIZ1 (11724087_x_at) / Fold change /veh FIZ1 (11724087_x_at) / RFU OASL (11726364_x_at) / Fold change /veh OASL (11726364_x_at) / RFU SOX15 (11748057_x_at) / Fold change /veh SOX15 (11748057_x_at) / RFU CD79A (11719716_a_at) / Fold change /veh CD79A (11719716_a_at) / RFU HIST1H1D (11736915_at) / Fold change /veh HIST1H1D (11736915_at) / RFU CASKIN2 (11723855_a_at) / Fold change /veh CASKIN2 (11723855_a_at) / RFU LOC730098 (11760151_x_at) / Fold change /veh LOC730098 (11760151_x_at) / RFU OR4N2 (11742367_at) / Fold change /veh OR4N2 (11742367_at) / RFU PRRT2 (11749266_a_at) / Fold change /veh PRRT2 (11749266_a_at) / RFU SNX32 (11753110_a_at) / Fold change /veh SNX32 (11753110_a_at) / RFU CDHR5 (11726645_a_at) / Fold change /veh CDHR5 (11726645_a_at) / RFU RCAN1 (11760418_a_at) / Fold change /veh RCAN1 (11760418_a_at) / RFU FAM167A (11723789_a_at) / Fold change /veh FAM167A (11723789_a_at) / RFU FAM26E (11764081_at) / Fold change /veh FAM26E (11764081_at) / RFU ISYNA1 (11749810_s_at) / Fold change /veh ISYNA1 (11749810_s_at) / RFU ACY1 (11761880_at) / Fold change /veh ACY1 (11761880_at) / RFU 11764098_at / Fold change /veh 11764098_at / RFU SAMD14 (11745864_x_at) / Fold change /veh SAMD14 (11745864_x_at) / RFU NPB (11741838_a_at) / Fold change /veh NPB (11741838_a_at) / RFU TMPRSS6 (11731388_a_at) / Fold change /veh TMPRSS6 (11731388_a_at) / RFU KRTAP10-2 (11738614_at) / Fold change /veh KRTAP10-2 (11738614_at) / RFU ARHGAP8 /// PRR5-ARHGAP8 (11727945_x_at) / Fold change /veh ARHGAP8 /// PRR5-ARHGAP8 (11727945_x_at) / RFU KRTAP5-7 /// NADSYN1 (11734609_at) / Fold change /veh KRTAP5-7 /// NADSYN1 (11734609_at) / RFU RASL12 (11751679_a_at) / Fold change /veh RASL12 (11751679_a_at) / RFU CDKN2B (11736163_a_at) / Fold change /veh CDKN2B (11736163_a_at) / RFU PRF1 (11729649_at) / Fold change /veh PRF1 (11729649_at) / RFU, ZNF638 /// ZNF638-IT1 / Fold change vs veh, ZNF638 /// ZNF638-IT1 / RFU, PANK3 / Fold change vs veh, PANK3 / RFU, SH3YL1 / Fold change vs veh, SH3YL1 / RFU, ZEB2 / Fold change vs veh, ZEB2 / RFU, NRIP1 / Fold change vs veh, NRIP1 / RFU, PTTG1IP / Fold change vs veh, PTTG1IP / RFU, CAPN2 / Fold change vs veh, CAPN2 / RFU, MED14 / Fold change vs veh, MED14 / RFU, SNORA58 / Fold change vs veh, SNORA58 / RFU, C1orf63 / Fold change vs veh, C1orf63 / RFU, LRRFIP1 / Fold change vs veh, LRRFIP1 / RFU, NDUFAF7 / Fold change vs veh, NDUFAF7 / RFU, SLC12A2 / Fold change vs veh, SLC12A2 / RFU, IBTK / Fold change vs veh, IBTK / RFU, ESF1 / Fold change vs veh, ESF1 / Fold change vs veh, TMEM50B / RFU, TAOK1 / Fold change vs veh, TAOK1 / RFU, ACBD3 / Fold change vs veh, ACBD3 / RFU, TMA16 / Fold change vs veh, TMA16 / RFU, RWDD3 / Fold change vs veh, RWDD3 / RFU, BCAT1 / Fold change vs veh, BCAT1 / RFU, EDEM3 / Fold change vs veh, EDEM3 / RFU, TMEM33 / Fold change vs veh, TMEM33 / RFU, WDR75 / Fold change vs veh, WDR75 / RFU, AHCTF1 / Fold change vs veh, AHCTF1 / RFU, TFRC / Fold change vs veh, TFRC / RFU, ZDHHC17 / Fold change vs veh, ZDHHC17 / RFU, NOM1 / Fold change vs veh, NOM1 / RFU, ARL8B / Fold change vs veh, ARL8B / RFU, ZBTB11 / Fold change vs veh, ZBTB11 / RFU, TAMM41 / Fold change vs veh, TAMM41 / RFU, KIAA1704 /// LOC100996395 / Fold change vs veh, KIAA1704 /// LOC100996395 / RFU, ING1 / Fold change vs veh, ING1 / RFU, TRMT61B / Fold change vs veh, TRMT61B / RFU, FUBP3 / Fold change vs veh, FUBP3 / RFU, TP53 / Fold change vs veh, TP53 / RFU, TNKS2 / Fold change vs veh, TNKS2 / RFU, ZFP14 / Fold change vs veh, ZFP14 / RFU, ACTR2 / Fold change vs veh, ACTR2 / RFU, PPP3R1 / Fold change vs veh, PPP3R1 / RFU, PIK3R1 / Fold change vs veh, PIK3R1 / RFU, HNRNPA1 / Fold change vs veh, HNRNPA1 / RFU, RNF170 / Fold change vs veh, RNF170 / RFU, ZNF28 / Fold change vs veh, ZNF28 / RFU, RNGTT / Fold change vs veh, RNGTT / RFU, OGT / Fold change vs veh, OGT / RFU, BRD1 / Fold change vs veh, BRD1 / RFU, MARS / Fold change vs veh, MARS / RFU, ZNF655 / Fold change vs veh, ZNF655 / RFU, FAHD1 / Fold change vs veh, FAHD1 / RFU, BDP1 / Fold change vs veh, BDP1 / RFU, LRRCC1 / Fold change vs veh, LRRCC1 / RFU, ARID1A / Fold change vs veh, ARID1A / RFU, ZNF146 / Fold change vs veh, ZNF146 / RFU, ZNF330 / Fold change vs veh, ZNF330 / RFU, GPN3 / Fold change vs veh, GPN3 / RFU, C9orf123 / Fold change vs veh, C9orf123 / RFU, N4BP2L2 / Fold change vs veh, N4BP2L2 / RFU, ARFIP1 / Fold change vs veh, ARFIP1 / RFU, FAM179B / Fold change vs veh, FAM179B / RFU, BCL10 / Fold change vs veh, BCL10 / RFU, UHRF1BP1L / Fold change vs veh, UHRF1BP1L / RFU, BET1 / Fold change vs veh, BET1 / RFU, CNOT2 / Fold change vs veh, CNOT2 / RFU, ZNF268 / Fold change vs veh, ZNF268 / Fold change vs veh, ZNF507 / RFU, DGCR2 / Fold change vs veh, DGCR2 / RFU, WDSUB1 / Fold change vs veh, WDSUB1 / Fold change vs veh, HSP90B1 /// MIR3652 / RFU, ADSS / Fold change vs veh, ADSS / RFU, GK / Fold change vs veh, GK / RFU, ZNF148 / Fold change vs veh, ZNF148 / RFU, TAF9 / Fold change vs veh, TAF9 / RFU, SLC1A5 / Fold change vs veh, SLC1A5 / RFU, SLMO2 / Fold change vs veh, SLMO2 / RFU, ABCC4 / Fold change vs veh, ABCC4 / RFU, LOC101060439 /// RAP1B / Fold change vs veh, LOC101060439 /// RAP1B / RFU, RFX7 / Fold change vs veh, RFX7 / RFU, GTPBP10 / Fold change vs veh, GTPBP10 / RFU, CNEP1R1 / Fold change vs veh, CNEP1R1 / RFU, BIVM-ERCC5 /// ERCC5 / Fold change vs veh, BIVM-ERCC5 /// ERCC5 / RFU, ILF3 / Fold change vs veh, ILF3 / RFU 11762660_at / Fold change /veh 11762660_at / RFU VCAN (11757783_s_at) / Fold change /veh VCAN (11757783_s_at) / RFU DDX43 (11728927_at) / Fold change /veh DDX43 (11728927_at) / RFU KRT8 (11758188_x_at) / Fold change /veh KRT8 (11758188_x_at) / RFU NKD1 (11759106_at) / Fold change /veh NKD1 (11759106_at) / RFU SRD5A1 (11742802_a_at) / Fold change /veh SRD5A1 (11742802_a_at) / RFU TPSAB1 /// TPSB2 (11721975_s_at) / Fold change /veh TPSAB1 /// TPSB2 (11721975_s_at) / RFU GSTM3 (11746129_a_at) / Fold change /veh GSTM3 (11746129_a_at) / RFU IL23R (11737362_x_at) / Fold change /veh IL23R (11737362_x_at) / RFU TMEM51 (11727254_a_at) / Fold change /veh TMEM51 (11727254_a_at) / RFU PIWIL2 (11732686_x_at) / Fold change /veh PIWIL2 (11732686_x_at) / RFU ORM1 (11744905_x_at) / Fold change /veh ORM1 (11744905_x_at) / RFU CCDC152 (11743942_at) / Fold change /veh CCDC152 (11743942_at) / RFU ECM1 (11717891_a_at) / Fold change /veh ECM1 (11717891_a_at) / RFU IL23R (11748794_a_at) / Fold change /veh IL23R (11748794_a_at) / RFU TNFAIP8L3 (11732012_x_at) / Fold change /veh TNFAIP8L3 (11732012_x_at) / RFU MBOAT4 (11741988_at) / Fold change /veh MBOAT4 (11741988_at) / RFU 11764193_at / Fold change /veh 11764193_at / RFU TMEM53 (11763286_at) / Fold change /veh TMEM53 (11763286_at) / RFU MAGEB2 (11727129_at) / Fold change /veh MAGEB2 (11727129_at) / RFU TMEM200A (11744735_a_at) / Fold change /veh TMEM200A (11744735_a_at) / RFU CCDC152 (11751479_a_at) / Fold change /veh CCDC152 (11751479_a_at) / RFU FAM211A (11726209_a_at) / Fold change /veh FAM211A (11726209_a_at) / RFU RGS16 (11746705_a_at) / Fold change /veh RGS16 (11746705_a_at) / RFU VCAN (11755009_s_at) / Fold change /veh VCAN (11755009_s_at) / RFU RHOB (11743442_s_at) / Fold change /veh RHOB (11743442_s_at) / RFU RGS16 (11720943_a_at) / Fold change /veh RGS16 (11720943_a_at) / RFU RGS16 (11720944_at) / Fold change /veh RGS16 (11720944_at) / RFU, VPS4B / Fold change vs veh, VPS4B / RFU, CREB1 / Fold change vs veh, CREB1 / RFU, DNAJC13 / Fold change vs veh, DNAJC13 / RFU, GNAQ / Fold change vs veh, GNAQ / RFU, CDK5R1 / Fold change vs veh, CDK5R1 / RFU, ZRANB3 / Fold change vs veh, ZRANB3 / RFU, CUL4A / Fold change vs veh, CUL4A / RFU, CCNY / Fold change vs veh, CCNY / RFU, UFL1 / Fold change vs veh, UFL1 / RFU, COG3 / Fold change vs veh, COG3 / RFU, DIAPH2 / Fold change vs veh, DIAPH2 / RFU, SKA2 / Fold change vs veh, SKA2 / RFU, AFF3 / Fold change vs veh, AFF3 / RFU, LMF1 / Fold change vs veh, LMF1 / RFU, IPO11 / Fold change vs veh, IPO11 / RFU, DFFB / Fold change vs veh, DFFB / RFU, FOXP1 / Fold change vs veh, FOXP1 / RFU, CARD8 / Fold change vs veh, CARD8 / RFU, STRN3 / Fold change vs veh, STRN3 / RFU, ADK / Fold change vs veh, ADK / RFU, RASSF2 / Fold change vs veh, RASSF2 / RFU, WIPF1 / Fold change vs veh, WIPF1 / RFU, LARP1B / Fold change vs veh, LARP1B / RFU, RASA1 / Fold change vs veh, RASA1 / RFU, RB1 / Fold change vs veh, RB1 / RFU, PPFIA1 / Fold change vs veh, PPFIA1 / RFU, MAT2A / Fold change vs veh, MAT2A / RFU, CCT5 / Fold change vs veh, CCT5 / RFU, WDR92 / Fold change vs veh, WDR92 / RFU, CUX1 / Fold change vs veh, CUX1 / RFU, TTC7A / Fold change vs veh, TTC7A / RFU, TMEM135 / Fold change vs veh, TMEM135 / RFU, DEPTOR / Fold change vs veh, DEPTOR / RFU, CPM / Fold change vs veh, CPM / RFU, DNAJB6 / Fold change vs veh, DNAJB6 / RFU, CACNA2D3 / Fold change vs veh, CACNA2D3 / RFU, DTX4 / Fold change vs veh, DTX4 / RFU, TFCP2 / Fold change vs veh, TFCP2 / RFU, GMCL1 /// GMCL1P1 / Fold change vs veh, GMCL1 /// GMCL1P1 / RFU, AEBP2 / Fold change vs veh, AEBP2 / RFU, SNHG1 /// SNORD22 /// SNORD25 /// SNORD26 /// SNORD27 /// SNORD28 /// SNORD29 /// SNORD31 / Fold change vs veh, SNHG1 /// SNORD22 /// SNORD25 /// SNORD26 /// SNORD27 /// SNORD28 /// SNORD29 /// SNORD31 / Fold change (Aza/veh), C12orf56 (ProbeSet 11735607_a_at) / Fold change (ACY-1035/veh), C12orf56 (ProbeSet 11735607_a_at) / Fold change (Aza/veh), FGFR1OP (ProbeSet 11751329_s_at) / Fold change (ACY-1035/veh), FGFR1OP (ProbeSet 11751329_s_at) / Fold change (Aza/veh), VPS36 (ProbeSet 11739960_a_at) / Fold change (ACY-1035/veh), VPS36 (ProbeSet 11739960_a_at) / RFU SYPL1 (11715823_x_at) / Fold change /veh SYPL1 (11715823_x_at) / RFU IGFBP7 (11715501_s_at) / Fold change /veh IGFBP7 (11715501_s_at) / RFU REEP3 (11722064_at) / Fold change /veh REEP3 (11722064_at) / RFU IGLL1 (11728026_x_at) / Fold change /veh IGLL1 (11728026_x_at): dose or concentration left out as unconfirmed
Details: ProbeSet 11730252_s_at; LIST B

## Nc1ccc(-c2cccs2)cc1NC(=O)c1ccc2c(c1)cc(C1CC1)n2CCN1CCOCC1 [ACY-1035]
  RFU, AHCTF1: 224.50 RFU
